A short description of experiment [1]: Induction of anti-CD3/CD28 antibodies-stimulated human T cell activation at 1 uM assessed fold increase in CD25 expression measured by ELISA assay. The experiment is classed as functional, T cell line. In general terms: In an ELISA, binding on a coated surface is turned into a signal by an enzyme label.
The nature of experiment [2]: Induction of anti-CD3/CD28 antibodies-stimulated human T cell activation at 1 uM assessed fold increase in IL-2 secretion measured by ELISA assay. Type of experiment: functional, T cell line.
A short description of experiment [3]: Induction of anti-CD3 antibodies-stimulated human T cell activation at 1 uM assessed fold increase in CD25 expression measured by ELISA assay. Note: reference of the scale not given here. Type of experiment: functional, T cell line.
The nature of experiment [4]: Induction of anti-CD3/CD28 antibodies-stimulated human T cell activation at 0.3 uM assessed fold increase in CD25 expression measured by ELISA assay. Type of experiment: functional, T cell line.
The nature of experiment [5]: Induction of anti-CD3 antibodies-stimulated human T cell activation at 1 uM assessed fold increase in IL-2 secretion measured by ELISA assay. Note: reference of the scale not given here. Type of experiment: functional, T cell line.
The target of experiment [6] is E3 ubiquitin-protein ligase CBL-B (Homo sapiens, UniProt Q13191). Put plainly: Inhibition of N-terminal Avi-tagged human CBL-B (36 to 427 residues) incubated with 60 nM Src kinase for 1.5 hrs followed by incubation with fluorescently labeled UbcH5B-Ub for 1 hr and measured by TR-FRET assay. The experiment is classed as single protein. (In general: TR-FRET usually uses a lanthanide donor and a delayed reading to cut background.)
E3 ubiquitin-protein ligase CBL-B, sequence (Q13191 whole entry, the tested form may be a part): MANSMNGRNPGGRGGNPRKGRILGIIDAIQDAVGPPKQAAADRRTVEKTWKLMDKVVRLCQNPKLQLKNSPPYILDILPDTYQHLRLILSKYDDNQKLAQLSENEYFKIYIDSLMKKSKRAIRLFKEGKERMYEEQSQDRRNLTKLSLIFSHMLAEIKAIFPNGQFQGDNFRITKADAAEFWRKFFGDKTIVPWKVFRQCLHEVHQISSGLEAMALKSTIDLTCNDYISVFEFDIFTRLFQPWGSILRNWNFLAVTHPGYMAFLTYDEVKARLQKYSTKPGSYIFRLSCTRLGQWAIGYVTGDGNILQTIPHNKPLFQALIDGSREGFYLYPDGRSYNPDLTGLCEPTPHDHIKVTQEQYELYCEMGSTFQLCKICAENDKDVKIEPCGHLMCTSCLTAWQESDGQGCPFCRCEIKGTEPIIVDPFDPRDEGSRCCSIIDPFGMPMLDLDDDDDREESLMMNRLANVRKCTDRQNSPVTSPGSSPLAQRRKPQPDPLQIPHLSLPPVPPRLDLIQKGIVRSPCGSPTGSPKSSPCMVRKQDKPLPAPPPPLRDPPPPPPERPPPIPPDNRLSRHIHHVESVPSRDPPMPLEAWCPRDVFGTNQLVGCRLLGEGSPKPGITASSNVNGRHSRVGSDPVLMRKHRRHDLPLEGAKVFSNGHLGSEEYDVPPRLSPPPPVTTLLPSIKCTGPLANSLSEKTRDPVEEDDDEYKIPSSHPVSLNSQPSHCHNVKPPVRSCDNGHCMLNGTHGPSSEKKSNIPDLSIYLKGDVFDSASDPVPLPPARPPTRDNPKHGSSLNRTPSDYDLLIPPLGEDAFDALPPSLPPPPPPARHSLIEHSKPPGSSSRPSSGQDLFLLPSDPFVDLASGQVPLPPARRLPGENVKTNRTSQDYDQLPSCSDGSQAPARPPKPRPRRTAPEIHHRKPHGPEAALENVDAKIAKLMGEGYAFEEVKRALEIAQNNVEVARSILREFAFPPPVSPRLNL

Experiment [7] can be described thus: Induction of anti-CD3/CD28 antibodies-stimulated human T cell activation at 0.3 uM assessed fold increase in IL-2 secretion measured by ELISA assay. Type of experiment: functional, T cell line.

These results are taken from ChEMBL document CHEMBL5050844 (2019).

SMILES strings stand for the structures. Bounds are passed on as bounds.

Broadly, the IC50 is the concentration that gives 50% inhibition. A higher IC50 goes with lower potency. For `Cc1cc(C(=O)Nc2cccc([C@@]3(Cc4nncn4C)CCOC3)c2)nc(C2CC2)n1`, the “fold change (FC)” value in experiment [1] stood at 1.01; in experiment [2] it was 2.51; in experiment [3] it was 0.801; in experiment [4], 1.01; in experiment [5], 0.101; in experiment [7] it was 2.51. For the same molecule, in experiment [6], the IC50 was less than 100 nM.

Turning to `Cn1cnnc1CC1(c2cccc(N3Cc4c(cc(CN5CCCC5)nc4C4CC4)C3=O)c2)COC1`, the “fold change (FC)” value in experiment [1] is 1.01; in experiment [2], 2.51; in experiment [3] it was “<=0.6”; in experiment [4], 1.01; in experiment [5], “<=0.05”; in experiment [7], 1.01. The molecule further showed an IC50 in experiment [6] of less than 100 nM.

Consider `Cn1cnnc1CC1(c2cccc(N3Cc4c(cc(OC5CC5)cc4C(F)(F)F)C3=O)c2)COC1`, for which the “fold change (FC)” value in experiment [1] was 1.01; in experiment [2], 2.51; in experiment [3], “>=1.001”; in experiment [4], 1.01; in experiment [5], 0.151; in experiment [7], 1.01. The same molecule came in with an IC50 in experiment [6] of less than 100 nM.

On to `Cn1cnnc1CC1(c2cccc(N3Cc4c(cc(C5CC5)nc4C4CC4)C3=O)c2)COC1`, for which the “fold change (FC)” value in experiment [1] amounted to 1.01; in experiment [2], 1.01; in experiment [3], 0.801; in experiment [4], 1.01; in experiment [5] it was 0.101; in experiment [7] it was 1.01. In experiment [6], this molecule returned an IC50 of less than 100 nM.

Turning to `Cn1cnnc1[C@H](F)C1(c2cccc(N3Cc4c(cc(CN5C6CCCC5CC6)cc4C(F)(F)F)C3=O)c2)COC1` (stereo in doubt; 671b), the “fold change (FC)” value was “>=1.76” in experiment [1] (1 µM); “>=7.5” in experiment [2]; “>=1.001” in experiment [3]; “>=1.76” in experiment [4] (0.3 µM); “>=0.201” in experiment [5]; “>=7.5” in experiment [7]. For the same molecule, the half-maximal inhibitory concentration (IC50) in experiment [6] is less than 100 nM.

Turning to `CN1CCC(=O)C(Cc2cc3c(c(C(F)(F)F)c2)CN(c2cccc(C4(Cc5nncn5C)COC4)c2)C3=O)C1` (centres undefined), the “fold change (FC)” value in experiment [1] is reported as 1.01; in experiment [2] it was “>=7.5”; in experiment [3], “>=1.001”; in experiment [4], 1.01; in experiment [5], “>=0.201”; in experiment [7] it was “>=7.5”. Further, the IC50 in experiment [6] was less than 100 nM.

Turning to `Cn1cnnc1CC1(c2cccc(N3Cc4c(cc(CN5CCC6(CC6)C5)cc4C(F)(F)F)C3=O)c2)CCC1`, the “fold change (FC)” value is listed as 1.31 in experiment [1]; “>=7.5” in experiment [2]; “>=1.001” in experiment [3]; 1.31 in experiment [4]; “>=0.201” in experiment [5]; “>=7.5” in experiment [7]. The same molecule had an IC50 in experiment [6] of less than 100 nM.

As to `Cn1cnnc1CC1(c2cccc(N3Cc4c(cc(C5CCOC5)cc4C(F)(F)F)C3=O)c2)COC1` (centres undefined), the “fold change (FC)” value in experiment [1] amounted to 1.01; in experiment [2] it was 5; in experiment [3], 0.801; in experiment [4], 1.01; in experiment [5], 0.101; in experiment [7] it was 2.51. The half-inhibitory concentration (IC50) in experiment [6] was less than 100 nM.

With `Cn1cnnc1CC1(c2cccc(N3Cc4c(cc(CN5CC6CC6(C)C5)cc4C(F)(F)F)C3=O)c2)COC1` (centres undefined), the “fold change (FC)” value in experiment [1] is recorded as 1.01; in experiment [2], “>=7.5”; in experiment [3] it was “>=1.001”; in experiment [4] it was 1.01; in experiment [5], “>=0.201”; in experiment [7], “>=7.5”. The molecule also showed an IC50 in experiment [6] of less than 100 nM.

In the case of `CN1CCN(Cc2cc3c(c(C(F)(F)F)c2)CN(c2cccc(C4(Cc5nncn5C)COC4)c2)C3=O)CC1`, the “fold change (FC)” value in experiment [1] was 1.31; in experiment [2], “>=7.5”; in experiment [3], “>=1.001”; in experiment [4], 1.31; in experiment [5] it was “>=0.201”; in experiment [7], 2.51. This molecule also yielded an IC50 in experiment [6] of less than 100 nM.

Regarding `Cn1cnnc1CC1(c2cccc(N3Cc4c(cc(CN5CCc6ccccc6C5)cc4C(F)(F)F)C3=O)c2)COC1`, the “fold change (FC)” value in experiment [1] is reported as 1.31; in experiment [2], “>=7.5”; in experiment [3], “>=1.001”; in experiment [4], 1.01; in experiment [5], “>=0.201”; in experiment [7], 5. The same molecule registered an IC50 in experiment [6] of less than 100 nM.

With `CN1CC2CC1CN2c1cc2c(c(C(F)(F)F)c1)CN(c1cccc([C@@](C)(F)C(F)(F)c3nncn3C)c1)C2=O` (single isomer, unassigned; 562), the “fold change (FC)” value in experiment [1] is given as 1.51; in experiment [2], “>=7.5”; in experiment [3], “>=1.001”; in experiment [4], 1.51; in experiment [5], “>=0.201”; in experiment [7], 5. This molecule also came in with an IC50 in experiment [6] of less than 100 nM.

Consider `Cn1cnnc1CC1(c2cccc(N3Cc4c(cc(CN5C6CCC5CC6)cc4C(F)(F)F)C3=O)c2)COC1`, for which the “fold change (FC)” value is reported as 1.51 in experiment [1]; “>=7.5” in experiment [2]; “>=1.001” in experiment [3]; 1.51 in experiment [4]; “>=0.201” in experiment [5]; “>=7.5” in experiment [7]. The same molecule came in with an IC50 in experiment [6] of less than 100 nM.

Regarding `C[C@H](c1cc2c(c(C(F)(F)F)c1)CN(c1cccc(C3(Cc4nncn4C)COC3)c1)C2=O)N1CC2CC2C1` (some centres undefined), the “fold change (FC)” value was 1.31 in experiment [1]; “>=7.5” in experiment [2]; “>=1.001” in experiment [3]; 1.31 in experiment [4]; “>=0.201” in experiment [5]; “>=7.5” in experiment [7]. For the same molecule, in experiment [6], the IC50 is less than 100 nM.

As for `CC[C@H](c1cc2c(c(C(F)(F)F)c1)CN(c1cccc(C3(Cc4nncn4C)COC3)c1)C2=O)N1CC[C@H](F)C1`, the “fold change (FC)” value in experiment [1] is given as 1.51; in experiment [2], “>=7.5”; in experiment [3], “>=1.001”; in experiment [4], 1.51; in experiment [5], “>=0.201”; in experiment [7], “>=7.5”. In addition, the IC50 in experiment [6] was less than 100 nM.

For `Cc1cc(C(=O)Nc2cccc(C3(Cc4nocc4C)COC3)c2)nc(C2CC2)n1`, the “fold change (FC)” value in experiment [1] is on record as 1.31; in experiment [2], “>=7.5”; in experiment [3], “>=1.001”; in experiment [4] it was 1.31; in experiment [5], “>=0.201”; in experiment [7] it was “>=7.5”. This molecule also registered an IC50 in experiment [6] of less than 100 nM.

As to `Cc1conc1CC1(c2cccc(N3Cc4c(cc(CN5CCC6(CC6)C5)cc4C(F)(F)F)C3=O)c2)COC1`, the “fold change (FC)” value in experiment [1] is 1.31; in experiment [2], “>=7.5”; in experiment [3], “>=1.001”; in experiment [4], 1.31; in experiment [5], “>=0.201”; in experiment [7], “>=7.5”. In experiment [6], this molecule showed an IC50 of less than 100 nM.
